Data reported in ChEMBL document CHEMBL5338803, “Novel Medicinal Chemistry Strategies Targeting CDK5 for Drug Discovery” (J Med Chem, 2023).

Experiments:
[1] = biological target: Dual specificity tyrosine-phosphorylation-regulated kinase 1A (Homo sapiens) (UniProt Q13627); test: Inhibition of DYRK1A (unknown origin) at 10 uM relative to control
[2] = biological target: Cyclin-dependent kinase 5 (Homo sapiens) (UniProt Q00535); test: Inhibition of CDK5 (unknown origin) at 10 uM relative to control
Sequence of Cyclin-dependent kinase 5 (Homo sapiens) (Q00535 whole entry, looked up): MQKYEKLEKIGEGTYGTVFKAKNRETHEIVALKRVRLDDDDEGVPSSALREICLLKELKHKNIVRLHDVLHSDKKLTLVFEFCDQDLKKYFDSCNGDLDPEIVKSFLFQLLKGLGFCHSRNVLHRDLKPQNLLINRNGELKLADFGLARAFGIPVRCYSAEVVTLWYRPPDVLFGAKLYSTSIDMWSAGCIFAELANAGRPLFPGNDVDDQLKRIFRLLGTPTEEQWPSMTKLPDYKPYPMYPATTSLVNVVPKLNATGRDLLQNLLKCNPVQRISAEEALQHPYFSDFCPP

[3] = biological target: Glycogen synthase kinase-3 beta (Homo sapiens, UniProt P49841); test: Inhibition of GSK3beta (unknown origin)
Sequence of Glycogen synthase kinase-3 beta (P49841 whole entry): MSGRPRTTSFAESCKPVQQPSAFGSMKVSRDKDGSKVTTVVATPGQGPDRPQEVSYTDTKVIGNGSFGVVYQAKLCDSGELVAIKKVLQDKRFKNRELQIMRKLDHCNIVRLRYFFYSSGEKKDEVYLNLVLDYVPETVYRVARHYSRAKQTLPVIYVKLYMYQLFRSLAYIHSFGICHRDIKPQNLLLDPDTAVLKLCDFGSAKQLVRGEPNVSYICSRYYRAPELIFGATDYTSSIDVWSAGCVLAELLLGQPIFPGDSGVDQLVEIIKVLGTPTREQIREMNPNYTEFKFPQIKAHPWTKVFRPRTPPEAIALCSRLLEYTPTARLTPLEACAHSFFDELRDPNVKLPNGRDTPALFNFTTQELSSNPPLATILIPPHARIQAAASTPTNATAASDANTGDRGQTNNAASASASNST

SH-SY5Y = test: Neuroprotective activity against amyloid beta (25 to 35)-induced cell damage in human SH-SY5Y cells assessed as survival rate at 10 uM measured after 72 hrs by MTT assay; format: functional; settings: read-out: Survival
[4] = biological target: Cyclin-dependent kinase 5/CDK5 activator 1 (Homo sapiens, UniProt Q00535); test: Inhibition of CDK5/p25 (unknown origin); format: protein-complex assay
Sequence of Cyclin-dependent kinase 5/CDK5 activator 1 (Q00535 whole entry): as the sequence (Q00535 whole entry, looked up) above
Sequence of Cyclin-dependent kinase 5/CDK5 activator 1 (Q15078 whole entry, further chain): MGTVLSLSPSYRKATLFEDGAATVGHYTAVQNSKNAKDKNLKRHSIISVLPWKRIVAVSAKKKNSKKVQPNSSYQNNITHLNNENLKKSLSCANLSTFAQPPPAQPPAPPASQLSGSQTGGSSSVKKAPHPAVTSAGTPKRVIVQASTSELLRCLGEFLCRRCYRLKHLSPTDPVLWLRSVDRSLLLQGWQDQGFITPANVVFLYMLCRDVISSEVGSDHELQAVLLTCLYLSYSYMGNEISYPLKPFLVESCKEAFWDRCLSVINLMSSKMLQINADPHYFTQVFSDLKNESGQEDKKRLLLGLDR

[5] = Selectivity index, ratio of IC50 for CDK2/cyclin A (unknown origin) to IC50 for CDK5/p25 (unknown origin)
[6] = biological target: Cyclin-dependent kinase 5 (Homo sapiens) (UniProt Q00535); test: Binding affinity to CDK5 (unknown origin) assessed as change in gibbs free energy
CDK2/Cyclin A1 = CDK2/Cyclin A1 (Homo sapiens, UniProt P24941); test: Inhibition of CDK2/cyclin A (unknown origin); format: protein-complex assay
[7] = Selectivity ratio of IC50 for CDK5 (unknown origin) to IC50 for CDK2 (unknown origin)

## NS(=O)(=O)c1cccc(Nc2ncc3c(n2)CCCC3)c1
[1]
  inhibition: 95%
[2]
  inhibition: 98%

## O=C(Nc1cc(Br)ccn1)Nc1cccc2c1C1CCCCN1C2=O (centres undefined)
[3]
  IC50: 0.022 µM

## O=C(C1=C(O)C(=O)N(CCc2c[nH]c3ccccc23)C1c1cccnc1)c1ccc(Cl)cc1 (centres undefined)
SH-SY5Y
  viability at 10 µM: 82.8%

## C[C@]12CC[C@H]3[C@@H](CCC4=CC(=O)CC[C@@]43C)[C@@H]1CC[C@@H]2C(=O)COS(=O)(=O)c1ccc(Br)cc1
[4]
  IC50: 6 µM

## O=c1oc2cc(O)cc(O)c2c2ccccc12
[1]
  inhibition: 92.2%
[2]
  inhibition: 62%

## O=C(Nc1csc(Cc2c(Cl)cccc2Cl)n1)NN1CCOCC1
[5]
  Ratio IC50: 10

## COc1ccc(CC(=O)Cc2ccn([C@H]3C[C@@H](C(N)=O)C3)c2)cc1
[6]
  deltaG: -96.1 kJ/mol
[4]
  IC50: 0.009 µM
CDK2/Cyclin A1
  IC50: 0.063 µM

## COc1ccc(OCC(=O)Nc2cccc(-c3nc4ccccc4c(=O)o3)c2)cc1
SH-SY5Y
  viability at 10 µM: 82.9%

## C[C@@]12CCC[C@H]1[C@@H]1CC[C@H]3C[C@H](N)CC[C@]3(C)[C@H]1CC2
[4]
  IC50: 6 µM

## CN1CCC(N(CC(=O)O)c2ccc3cnc(Nc4ccc(-n5ccc(CO)n5)cc4F)cc3n2)CC1
[7]
  Ratio IC50: 100
CDK2/Cyclin A1
  IC50: 0.444 µM

## NC(=O)CN1C(=O)C(O)(CC(=O)c2ccc3ccccc3c2)c2ccccc21 (centres undefined)
SH-SY5Y
  viability at 10 µM: 82.6%

## CN1C(=O)COc2ccc(-c3nn(Cc4ccccc4)c(=O)c4ccccc34)cc21
SH-SY5Y
  viability at 10 µM: 80.1%

## O=C(NOc1ccccc1)Nc1csc(Cc2c(Cl)cccc2Cl)n1
[7]
  Ratio IC50: 100
CDK2/Cyclin A1
  IC50: > 100 µM
